Test system: washed human platelet suspension
Assay: Inhibition of collagen-induced platelet aggregation (Lumi-Aggregometer)
Assay type: cell-based
Settings: washed human platelets, 37° C., 2 min preincubation, collagen 1-4 μg/ml, read out at 6 min after induction, read-out: IC50 (concentration at which 50% aggregation is reached), platelet aggregation inhibitors
Protocol: Platelet shape change in washed platelets was monitored using an aggregometer and the decrease in light transmittance following addition of an agonist (Huzoor et al., 1993). For the purpose of this analysis, collagen was used as the agonist. Briefly, a washed human platelet suspension was incubated at 37° C. in a Lumi-Aggregometer (Chrono-Log Corporation) with stirring at 900 rpm, followed by the addition of dimethylsulfoxide (DMSO) as a control vehicle, or various compounds dissolved in DMSO. After incubating the samples with the respective compound for 2 minutes, platelet aggregation was induced by, adding collagen (1-4 μg/ml) and the relative aggregation value was read out at 6 min after the induction. A dose response for each compound was derived.

SMILES	IC50 [µM]
O=C(NNc1ccnc2cc(C(F)(F)F)ccc12)c1cc2ccccc2[nH]1 [UC-177627]	4.3
O=C(NNc1ccnc2c(C(F)(F)F)cccc12)c1cc2ccccc2[nH]1 [UC-177628]	5.8
O=C(NNc1ccnc2cc(Cl)ccc12)c1ccc(Cl)c(Cl)c1 [UC-177619]	1.4
O=C(NNc1ccnc2cc(Cl)ccc12)c1cc2ccccc2[nH]1 [UC-177629]	2.3
Cc1ccc(C(=O)NNc2ccnc3cc(Cl)ccc23)cc1 [UC-177634]	6.7
O=C(NNc1ccnc2ccccc12)c1cc2ccccc2[nH]1 [UC-177626]	10.1
Cc1ccc(C(=O)NNc2ccnc3c(C(F)(F)F)cccc23)cc1 [UC-177633]	2.3
O=C(NNc1ccnc2ccccc12)c1ccc(Cl)c(Cl)c1 [UC-177617]	16.2
O=C(NNc1ccnc2c(C(F)(F)F)cccc12)c1ccc(Cl)c(Cl)c1 [UC-177618]	1.5
